The values below come from ChEMBL document CHEMBL4020729, “Synthesis and evaluation of anti-plasmodial and cytotoxic activities of epoxyazadiradione derivatives” (Eur J Med Chem, 2017).

Holding throughout (format): functional, cell-based
One test concerns SiHa. In words: Antiproliferative activity against human SiHa cells after 48 hrs by SRB assay.
The subject of another test is IMR-32. In words: Antiproliferative activity against human IMR32 cells after 48 hrs by SRB assay. Conditions: IMR-32, 48 h.
The next test concerns MDA-MB-231. In words: Antiproliferative activity against human MDA-MB-231 cells after 48 hrs by SRB assay. As to conditions: MDA-MB-231, 48 h.
A further test concerns PANC-1. Briefly: Antiproliferative activity against human PANC1 cells after 48 hrs by SRB assay. As to conditions: PANC-1, 48 h.
For another test, the system named is Plasmodium falciparum. Briefly: Anti-plasmodial activity against chloroquine-sensitive Plasmodium falciparum 3D7 infected in human erythrocytes after 50 hrs by SYBR green dye based fluorescence assay. As to conditions: 3D7, 50 h.

Consider `C=CCCC(=O)O/N=C1/[C@H]2O[C@]23[C@@]2(C)[C@H](CC[C@@]3(C)[C@@H]1c1ccoc1)[C@@]1(C)C=CC(=O)C(C)(C)[C@@H]1C[C@H]2OC(C)=O`, for which the IC50 was greater than 100 µM in the test with SiHa; greater than 100 µM in the test with IMR-32; 55.8 µM in the test with MDA-MB-231; greater than 100 µM with PANC-1; 5.8 µM in the test on Plasmodium falciparum.

`CC(=O)O[C@@H]1C[C@H]2C(C)(C)C(=O)C=C[C@]2(C)[C@H]2CC[C@@]3(C)[C@H](c4ccoc4)/C(=N\OCc4cn(-c5ccc(C)cc5)nn4)[C@H]4O[C@]43[C@@]21C`: the IC50 is greater than 100 µM in the test with SiHa; greater than 100 µM with IMR-32; greater than 100 µM in the test on MDA-MB-231; greater than 100 µM in the test with PANC-1; 4.2 µM in the test with Plasmodium falciparum.

Consider `CC(=O)O[C@@H]1C[C@H]2C(C)(C)/C(=N/O)C=C[C@]2(C)[C@H]2CC[C@@]3(C)[C@H](c4ccoc4)/C(=N\O)[C@H]4O[C@]43[C@@]21C`, for which the IC50 with SiHa was greater than 100 µM; in the test with IMR-32, greater than 100 µM; in the test on MDA-MB-231, 29.1 µM; with PANC-1, greater than 100 µM; in the test on Plasmodium falciparum, 31.4 µM.

As to `COc1cccc2c1C(=O)c1c(O)c3c(c(O)c1C2=O)C[C@@](O)(C(=O)CO)C[C@@H]3O[C@H]1C[C@H](N)[C@H](O)[C@H](C)O1` [DOXORUBICIN], the IC50 turned out to be 1.9 µM with SiHa, 3.2 µM in the test on IMR-32, 1.8 µM in the test on MDA-MB-231 and 3.2 µM in the test on PANC-1.

`COc1ccc(OC)c(/C=C/C(=O)O[C@@H]2C[C@H]3C(C)(C)C(=O)C=C[C@]3(C)[C@H]3CC[C@@]4(C)[C@H](c5ccoc5)C(=O)[C@H]5O[C@]54[C@@]32C)c1`: the IC50 is greater than 100 µM in the test on SiHa; greater than 100 µM with IMR-32; greater than 100 µM in the test with MDA-MB-231; greater than 100 µM in the test on PANC-1; 8.8 µM in the test on Plasmodium falciparum.

On to `CC1(C)C(=O)C2OC2[C@]2(C)[C@H]3CC[C@@]4(C)[C@H](c5ccoc5)C(=O)[C@H]5O[C@]54[C@]3(C)C(=O)C[C@@H]12` (some centres undefined), for which the IC50 was greater than 100 µM in the test on SiHa; greater than 100 µM with IMR-32; greater than 100 µM in the test with MDA-MB-231; greater than 100 µM in the test on PANC-1; 131 µM with Plasmodium falciparum.

Consider `CC(=O)O[C@@H]1C[C@H]2C(C)(C)C(=O)CC[C@]2(C)[C@H]2CC[C@@]3(C)[C@H](C4CCOC4)C(=O)[C@H]4O[C@]43[C@@]21C` (some centres undefined), for which the IC50 in the test with SiHa was greater than 100 µM; with IMR-32, greater than 100 µM; in the test on MDA-MB-231, greater than 100 µM; in the test on PANC-1, greater than 100 µM; in the test with Plasmodium falciparum, 78.7 µM.

As for `CCC(=O)O[C@@H]1C[C@H]2C(C)(C)C(=O)C=C[C@]2(C)[C@H]2CC[C@@]3(C)[C@H](c4ccoc4)C(=O)[C@H]4O[C@]43[C@@]21C`, inhibition with Plasmodium falciparum was half-maximal at 7.1 µM (IC50).

On to `CC(=O)O[C@@H]1C[C@H]2C(C)(C)C(=O)C=C[C@]2(C)[C@H]2CC[C@@]3(C)[C@H](c4ccoc4)/C(=N\OC(=O)c4ccccc4Br)[C@H]4O[C@]43[C@@]21C`, for which the IC50 in the test on SiHa was greater than 100 µM; with IMR-32 it was greater than 100 µM; in the test on MDA-MB-231, greater than 100 µM; in the test with PANC-1, greater than 100 µM; with Plasmodium falciparum it was 12.2 µM.

Consider `CC(=O)O[C@@H]1C[C@H]2C(C)(C)C(=O)C=C[C@]2(C)[C@H]2CC[C@@]3(C)[C@H](c4ccoc4)C(O)[C@H]4O[C@]43[C@@]21C` (some centres undefined), for which the IC50 in the test with SiHa is greater than 100 µM; in the test on IMR-32, greater than 100 µM; with MDA-MB-231, 47.8 µM; with PANC-1, greater than 100 µM; in the test with Plasmodium falciparum it was 13.1 µM.

Turning to `CC(=O)O[C@@H]1C[C@H]2C(C)(C)C(=O)C=C[C@]2(C)[C@H]2CC[C@@]3(C)[C@H](c4ccoc4)/C(=N\OC(=O)c4ccc(Br)cc4)[C@H]4O[C@]43[C@@]21C`, the IC50 in the test with SiHa is greater than 100 µM; with IMR-32 it was greater than 100 µM; in the test with MDA-MB-231 it was greater than 100 µM; in the test on PANC-1, greater than 100 µM; in the test on Plasmodium falciparum it was 9.4 µM.

Consider `CC(=O)O[C@@H]1C[C@H]2C(C)(C)C(=O)CC[C@]2(C)[C@H]2CC[C@@]3(C)[C@H](c4ccoc4)C(=O)[C@H]4O[C@]43[C@@]21C`, for which the IC50 is greater than 100 µM in the test with SiHa; greater than 100 µM with IMR-32; 20.2 µM with MDA-MB-231; greater than 100 µM in the test with PANC-1; 7.5 µM with Plasmodium falciparum.

As to `COc1ccc(C[C@@H](O)c2cc(OC)c(OC)c(OC)c2)cc1O` [COMBRETASTATIN], the IC50 with SiHa amounted to 2 µM; with IMR-32, 2.4 µM; in the test on MDA-MB-231 it was 2.3 µM; in the test with PANC-1, 3.5 µM.

Turning to `CCCC(=O)O/N=C1/[C@H]2O[C@]23[C@@]2(C)[C@H](CC[C@@]3(C)[C@@H]1c1ccoc1)[C@@]1(C)C=CC(=O)C(C)(C)[C@@H]1C[C@H]2OC(C)=O`, the IC50 was greater than 100 µM in the test with SiHa; greater than 100 µM in the test on IMR-32; greater than 100 µM in the test with MDA-MB-231; greater than 100 µM in the test with PANC-1; 9.3 µM in the test on Plasmodium falciparum.

In the case of `CC(=O)O[C@@H]1C[C@H]2C(C)(C)C(=O)C=C[C@]2(C)[C@H]2CC[C@@]3(C)[C@H](c4ccoc4)/C(=N\OC(=O)c4cc(Br)ccc4[N+](=O)[O-])[C@H]4O[C@]43[C@@]21C`, the IC50 was greater than 100 µM in the test with SiHa; greater than 100 µM in the test with IMR-32; greater than 100 µM with MDA-MB-231; greater than 100 µM in the test with PANC-1; 4.1 µM in the test with Plasmodium falciparum.

Turning to `CC(=O)O/N=C1/[C@H]2O[C@]23[C@@]2(C)[C@H](CC[C@@]3(C)[C@@H]1c1ccoc1)[C@@]1(C)C=CC(=O)C(C)(C)[C@@H]1C[C@H]2OC(C)=O`, the IC50 was greater than 100 µM with SiHa; greater than 100 µM in the test on IMR-32; greater than 100 µM in the test on MDA-MB-231; greater than 100 µM with PANC-1; 9.3 µM in the test on Plasmodium falciparum.

With `COc1cccc(C(=O)O/N=C2/[C@H]3O[C@]34[C@@]3(C)[C@H](CC[C@@]4(C)[C@@H]2c2ccoc2)[C@@]2(C)C=CC(=O)C(C)(C)[C@@H]2C[C@H]3OC(C)=O)c1`, the 50% inhibitory concentration (IC50) with SiHa was greater than 100 µM; in the test with IMR-32 it was greater than 100 µM; with MDA-MB-231 it was greater than 100 µM; with PANC-1, greater than 100 µM; with Plasmodium falciparum, 8 µM.

For `CCC(=O)O/N=C1/[C@H]2O[C@]23[C@@]2(C)[C@H](CC[C@@]3(C)[C@@H]1c1ccoc1)[C@@]1(C)C=CC(=O)C(C)(C)[C@@H]1C[C@H]2OC(C)=O`, the IC50 is greater than 100 µM in the test with SiHa; greater than 100 µM in the test on IMR-32; greater than 100 µM in the test with MDA-MB-231; greater than 100 µM in the test with PANC-1; 9.3 µM in the test with Plasmodium falciparum.

With `CC(=O)O[C@@H]1C[C@H]2C(C)(C)C(=O)C=C[C@]2(C)[C@H]2CC[C@@]3(C)[C@H](c4ccoc4)/C(=N\OCc4cn(-c5cc(Cl)c(Cl)cc5Cl)nn4)[C@H]4O[C@]43[C@@]21C`, the IC50 with SiHa was greater than 100 µM; in the test with IMR-32, greater than 100 µM; in the test on MDA-MB-231, greater than 100 µM; in the test with PANC-1 it was greater than 100 µM; in the test with Plasmodium falciparum, 2.3 µM.

On to `CC(=O)O[C@@H]1C[C@H]2C(C)(C)C(O)CC[C@]2(C)[C@H]2CC[C@@]3(C)[C@H](c4ccoc4)C(O)[C@H]4O[C@]43[C@@]21C` (some centres undefined), for which the IC50 is greater than 100 µM with SiHa; greater than 100 µM in the test on IMR-32; 15.9 µM in the test on MDA-MB-231; greater than 100 µM in the test with PANC-1; 21.4 µM with Plasmodium falciparum.

On to `CC(=O)O[C@@H]1C[C@H]2C(C)(C)C(=O)C3OC3[C@]2(C)[C@H]2CC[C@@]3(C)[C@H](c4ccoc4)C(=O)[C@H]4O[C@]43[C@@]21C` (some centres undefined), for which the IC50 is greater than 100 µM in the test with SiHa; greater than 100 µM with IMR-32; 23.2 µM in the test on MDA-MB-231; greater than 100 µM in the test on PANC-1; 15.5 µM in the test with Plasmodium falciparum.

Consider `CCC(=O)Nc1ccc(-n2cc(CO/N=C3/[C@H]4O[C@]45[C@@]4(C)[C@H](CC[C@@]5(C)[C@@H]3c3ccoc3)[C@@]3(C)C=CC(=O)C(C)(C)[C@@H]3C[C@H]4OC(C)=O)nn2)cc1`, for which the IC50 is greater than 100 µM in the test on SiHa; greater than 100 µM with IMR-32; greater than 100 µM in the test with MDA-MB-231; greater than 100 µM in the test with PANC-1; 6.7 µM in the test with Plasmodium falciparum.

On to `CC(=O)O[C@@H]1C[C@H]2C(C)(C)C(=O)C=C[C@]2(C)[C@H]2CC[C@@]3(C)[C@H](c4ccoc4)/C(=N\OCc4cn(-c5ccccc5C#N)nn4)[C@H]4O[C@]43[C@@]21C`, for which the IC50 in the test on SiHa was greater than 100 µM; in the test with IMR-32 it was greater than 100 µM; in the test on MDA-MB-231 it was greater than 100 µM; with PANC-1, greater than 100 µM; with Plasmodium falciparum it was 1.7 µM.

Take `CC(=O)O[C@@H]1C[C@H]2C(C)(C)C(=O)C=C[C@]2(C)[C@H]2CC[C@@]3(C)[C@H](c4ccoc4)/C(=N\OCc4cn(-c5ccc(Cl)cc5)nn4)[C@H]4O[C@]43[C@@]21C`: the IC50 with SiHa is greater than 100 µM; in the test on IMR-32, greater than 100 µM; with MDA-MB-231 it was 21.3 µM; in the test with PANC-1, greater than 100 µM; in the test with Plasmodium falciparum it was 2.9 µM.

On to `CC(=O)O[C@@H]1C[C@H]2C(C)(C)C(=O)C(O)C(O)[C@]2(C)[C@H]2CC[C@@]3(C)[C@H](c4ccoc4)C(=O)[C@H]4O[C@]43[C@@]21C` (some centres undefined), for which the half-inhibitory concentration (IC50) in the test with SiHa is greater than 100 µM; with IMR-32 it was greater than 100 µM; with MDA-MB-231 it was 29.9 µM; in the test on PANC-1, greater than 100 µM; in the test on Plasmodium falciparum it was 52.5 µM.

As to `CC1(C)C(=O)C=C[C@]2(C)[C@H]3CC[C@@]4(C)[C@H](c5ccoc5)/C(=N\O)[C@H]5O[C@]54[C@]3(C)[C@H](O)C[C@@H]12`, the half-maximal inhibitory concentration (IC50) in the test on SiHa was greater than 100 µM; in the test with IMR-32, greater than 100 µM; with MDA-MB-231 it was greater than 100 µM; in the test on PANC-1, greater than 100 µM; in the test with Plasmodium falciparum, 20 µM.

Take `CC(=O)O[C@@H]1C[C@H]2C(C)(C)C(O)C=C[C@]2(C)[C@H]2CC[C@@]3(C)[C@H](c4ccoc4)C(O)[C@H]4O[C@]43[C@@]21C` (some centres undefined): the IC50 in the test on SiHa is greater than 100 µM; with IMR-32, greater than 100 µM; with MDA-MB-231, greater than 100 µM; in the test with PANC-1 it was greater than 100 µM; with Plasmodium falciparum, 35.5 µM.

One may read the IC50 as the concentration that inhibits the measured activity by half. Low readings indicate inhibition by little substance, high ones a need for much substance.
